{"source": "patent US20100203647A1", "about": "“Chemical Reporters of Protein Acylation” (THE ROCKEFELLER UNIVERSITY, priority 2008, published 2010)", "type_in_all_cases": "biochemical", "key": {"[1]": {"target": "T1, p300 (Homo sapiens, UniProt Q09472)", "T1 construct": "made in house; host or cells: SF9 insect cells, baculovirus", "T1 sequence (Q09472 whole entry)": "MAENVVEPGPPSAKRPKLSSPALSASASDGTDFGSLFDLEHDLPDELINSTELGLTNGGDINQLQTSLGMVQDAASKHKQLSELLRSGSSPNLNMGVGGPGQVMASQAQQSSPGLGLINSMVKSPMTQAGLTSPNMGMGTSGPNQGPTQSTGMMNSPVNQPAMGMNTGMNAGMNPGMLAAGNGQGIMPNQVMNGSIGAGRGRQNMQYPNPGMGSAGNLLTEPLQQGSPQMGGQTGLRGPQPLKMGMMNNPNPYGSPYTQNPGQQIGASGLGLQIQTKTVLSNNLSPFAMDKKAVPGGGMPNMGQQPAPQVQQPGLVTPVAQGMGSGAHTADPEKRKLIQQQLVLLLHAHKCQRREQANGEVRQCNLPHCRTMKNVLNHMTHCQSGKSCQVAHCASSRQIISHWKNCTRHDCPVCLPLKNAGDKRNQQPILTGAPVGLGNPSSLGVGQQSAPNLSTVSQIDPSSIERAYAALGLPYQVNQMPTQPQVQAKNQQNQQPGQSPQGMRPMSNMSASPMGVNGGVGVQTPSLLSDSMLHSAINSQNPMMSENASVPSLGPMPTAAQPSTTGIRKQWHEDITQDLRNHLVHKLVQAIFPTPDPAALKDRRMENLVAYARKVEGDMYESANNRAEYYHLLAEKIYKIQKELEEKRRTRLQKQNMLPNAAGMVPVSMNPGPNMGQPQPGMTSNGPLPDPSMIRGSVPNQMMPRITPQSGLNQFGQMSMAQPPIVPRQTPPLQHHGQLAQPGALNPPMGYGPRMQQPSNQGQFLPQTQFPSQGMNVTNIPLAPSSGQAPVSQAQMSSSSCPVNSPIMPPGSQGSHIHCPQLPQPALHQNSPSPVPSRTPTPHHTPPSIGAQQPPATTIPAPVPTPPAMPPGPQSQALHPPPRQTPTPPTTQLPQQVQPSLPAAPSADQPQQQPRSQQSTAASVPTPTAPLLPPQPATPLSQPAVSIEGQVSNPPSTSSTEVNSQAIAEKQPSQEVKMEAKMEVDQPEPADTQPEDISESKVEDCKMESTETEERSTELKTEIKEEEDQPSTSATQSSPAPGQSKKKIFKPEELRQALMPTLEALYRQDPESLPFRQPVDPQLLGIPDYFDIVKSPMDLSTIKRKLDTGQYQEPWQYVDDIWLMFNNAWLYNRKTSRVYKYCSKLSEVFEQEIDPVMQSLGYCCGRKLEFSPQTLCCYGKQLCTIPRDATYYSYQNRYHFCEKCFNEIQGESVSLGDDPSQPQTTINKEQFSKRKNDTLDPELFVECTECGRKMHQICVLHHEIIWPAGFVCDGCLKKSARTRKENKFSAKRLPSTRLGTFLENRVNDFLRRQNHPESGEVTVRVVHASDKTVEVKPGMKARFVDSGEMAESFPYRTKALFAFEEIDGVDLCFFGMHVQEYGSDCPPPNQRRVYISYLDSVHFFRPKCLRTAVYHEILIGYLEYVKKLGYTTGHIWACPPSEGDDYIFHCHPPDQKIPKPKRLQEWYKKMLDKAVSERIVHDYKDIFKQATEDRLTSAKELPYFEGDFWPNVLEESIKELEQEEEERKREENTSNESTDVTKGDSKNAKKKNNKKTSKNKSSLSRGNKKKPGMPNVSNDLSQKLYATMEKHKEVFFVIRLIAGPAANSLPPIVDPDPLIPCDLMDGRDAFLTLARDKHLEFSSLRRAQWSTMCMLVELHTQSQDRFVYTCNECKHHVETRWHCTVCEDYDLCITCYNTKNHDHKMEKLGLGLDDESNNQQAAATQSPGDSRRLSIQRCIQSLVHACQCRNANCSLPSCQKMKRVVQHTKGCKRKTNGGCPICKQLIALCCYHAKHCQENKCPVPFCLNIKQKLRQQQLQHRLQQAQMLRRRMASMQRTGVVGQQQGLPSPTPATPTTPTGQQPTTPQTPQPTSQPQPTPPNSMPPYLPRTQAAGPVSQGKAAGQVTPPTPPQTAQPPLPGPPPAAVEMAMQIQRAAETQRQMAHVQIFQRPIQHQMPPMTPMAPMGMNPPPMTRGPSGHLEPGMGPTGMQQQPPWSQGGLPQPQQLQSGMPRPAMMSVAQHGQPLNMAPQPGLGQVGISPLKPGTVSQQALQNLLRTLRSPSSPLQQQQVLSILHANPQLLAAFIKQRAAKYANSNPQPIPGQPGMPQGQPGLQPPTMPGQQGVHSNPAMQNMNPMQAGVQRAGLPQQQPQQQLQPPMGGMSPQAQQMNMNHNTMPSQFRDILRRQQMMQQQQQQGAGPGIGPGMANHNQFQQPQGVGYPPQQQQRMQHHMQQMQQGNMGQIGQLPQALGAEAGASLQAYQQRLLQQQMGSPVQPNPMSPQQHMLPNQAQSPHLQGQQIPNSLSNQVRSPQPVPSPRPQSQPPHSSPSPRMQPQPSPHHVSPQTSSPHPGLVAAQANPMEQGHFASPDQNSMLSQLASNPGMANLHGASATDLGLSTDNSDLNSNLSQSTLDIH", "experiment": "MALDI-TOF analysis of p300-catalyzed acylation of histone H3 peptide in vitro", "details": "20 μM analog, MS analysis", "method": "Cells were lysed in lysis buffer (20 mM Tris, pH 7.5, 500 mM NaCl, 4 mM MgCl2, 0.4 mM EDTA, 20% glycerol, 2 mM DTT, and supplemented with protease inhibitors). Clarified cell lysates were diluted to 300 mM NaCl, and NP-40 was added to 0.1% final concentration. Flag M2 agarose resin (Sigma) was added to the lysate and incubated for 4 hours at 4° C. […] Protein concentration and purity were estimated by comparison to BSA standards on SDS gels stained with Gelcode Blue stain (Pierce)."}, "[2]": {"target": "T1, p300", "experiment": "In vitro acylation of histone H3 protein by p300 and mapping of modification sites (spectral counts, nano-HPLC/MS/MS)", "method": "Following the in vitro reaction, proteins were separated on 15% SDS-PAGE and stained with coomassie brilliant blue R-250 staining solution (Bio-Rad). The gel slices containing histone H3 products were excised from each lane, washed with 50 mM ammonium bicarbonate (ABC) twice, destained with 50 mM ABC/CH3CN (50/50) twice and dehydrated with CH3CN. After drying the gel slices in a SpeedVac, gel slices were rehydrated with trypsin solution (2 μg of trypsin for each vial/gel slice) and incubated in 37° C. water bath for 18 hrs. Trypsin-digested peptides in solution were collected, dried in SpeedVac, resuspended in H2O (with 0.1% TFA) and submitted samples to nano-HPLC/MS/MS analysis (Thermo LTQ-Orbitrap in the Proteomic Resource Center at Rockefeller University).\nLC-MS analysis was performed with a Dionex 3000 nano-HPLC coupled to an LTQ-Orbitrap ion trap mass spectrometer (ThermoFisher). Peptides were pressure loaded onto a home made 75 μm diameter, 15 cm C18 reverse phase column and separated with a gradient running from 95% buffer A (HPLC water with 0.1% formic acid) and 5% buffer B (HPLC grade acetonitrile with 0.1% formic acid) to 55% B over 30 min, next ramping to 95% B over 10 min and holding 95% B for 10 min. One full MS scan (300-2000 MW) was followed by 3 data dependent scans of the nth most intense ions with dynamic exclusion enabled. The spray voltage was set to 1.94 kV and the flow rate through the column was set to 0.25 μL/min.\nRaw tandem mass spectra were searched against the human IPI protein database version 3.56 using SEQUEST search engine (Thermo Scientific). Cysteine carbamido-methylation was searched as fixed modification, while methionine/tryptophan oxidation, asparagines/glutamine deamindation, lysine/serine/threonine/cysteine acetylation, N-terminal acetylation/3-butynylation/4-pentynylation/5-hexynylation and lysine 3-butynylation/4-pentynylation/5-hexynylation were searched as variable modifications. Peptide tolerance was set as 10.0 ppm, fragment ion tolerance was set as 1.0 AMU and trypsin was set as the digestion enzyme. The resulting searching files were then analyzed and visualized by Scaffold 2 proteome software.\nEach identified protein must contain at least 2 unique peptides that are exclusively assigned to this protein with a minimum protein identification probability of 99%. Each peptide spectrum must meet several selection thresholds including >95% for peptide identification probability, >1.0 for SEQUEST XCorr score, and ±6 ppm for actual minus calculated peptide mass."}, "[3]": {"target": "T1, p300", "experiment": "In-gel fluorescent detection of p300-catalyzed in vitro acylation of histone H3", "details": "CuAAC with az-Rho, in-gel fluorescence", "source_text": "CuAAC reactions were allowed to proceed at room temperature for 1 hr, and proteins were subsequently separated on 15% SDS-PAGE. The gels were soaked in destaining solution (40% MeOH, 10% AcOH, 50% H2O) for 1-2 hrs to remove the non-covalently bound az-Rho dye. After washing with dd H2O, the gel was subjected to in-gel fluorescence scanning."}, "[4]": {"details": "lysine-modified peptide, H3 + acyl-CoA + p300"}, "[5]": {"details": "lysine-modified peptide, H3 + acyl-CoA, without p300"}}}
{"substance": "5-hexynyl-CoA [Analog 3]", "values": [{"measurement": "utilization as acyl-CoA donor for p300-catalyzed acylation of histone H3 peptide", "setting": "[1]", "value": "less efficient acyl-donor substrate"}, {"measurement": "Spectral Counts of Peptide EIAQDFK (73-79) (SEQ ID NO: 7)", "setting": "[2]; H3 + acyl-CoA + p300", "value": 89}, {"measurement": "Spectral Counts of Peptide KLPFQR (64-69) (SEQ ID NO: 6)", "setting": "[2]; H3 + acyl-CoA + p300", "value": 8}, {"measurement": "Spectral Counts of Peptide KQLATK (18-23) (SEQ ID NO: 1)", "setting": "[2]; H3 + acyl-CoA + p300", "value": 10}, {"measurement": "Spectral Counts of Peptide KSAPATGGVK (27-36) (SEQ ID NO: 2)", "setting": "[2]; H3 + acyl-CoA + p300", "value": 38}, {"measurement": "Spectral Counts of Peptide SAPATGGVK (28-36) SEQ ID NO: 3", "setting": "[2]; H3 + acyl-CoA + p300", "value": 17}, {"measurement": "Spectral Counts of Peptide STELLIR (57-63) (SEQ ID NO: 5)", "setting": "[2]; H3 + acyl-CoA + p300", "value": 16}, {"measurement": "Spectral Counts of Peptide VTIMPK (117-122) (SEQ ID NO: 9)", "setting": "[2]; H3 + acyl-CoA + p300", "value": 8}, {"measurement": "Spectral Counts of Peptide YRPGTVALR (41-49) (SEQ ID NO: 4)", "setting": "[2]; H3 + acyl-CoA + p300", "value": 57}, {"measurement": "Spectral Counts of Peptide EIAQDFK (73-79) (SEQ ID NO: 7)", "setting": "[2]; H3 + acyl-CoA, without p300", "value": 74}, {"measurement": "Spectral Counts of Peptide KQLATK (18-23) (SEQ ID NO: 1)", "setting": "[2]; H3 + acyl-CoA, without p300", "value": 4}, {"measurement": "Spectral Counts of Peptide KSAPATGGVK (27-36) (SEQ ID NO: 2)", "setting": "[2]; H3 + acyl-CoA, without p300", "value": 36}, {"measurement": "Spectral Counts of Peptide RVTIMPK (116-122) (SEQ ID NO: 8)", "setting": "[2]; H3 + acyl-CoA, without p300", "value": 1}, {"measurement": "Spectral Counts of Peptide SAPATGGVK (28-36) SEQ ID NO: 3", "setting": "[2]; H3 + acyl-CoA, without p300", "value": 12}, {"measurement": "Spectral Counts of Peptide STELLIR (57-63) (SEQ ID NO: 5)", "setting": "[2]; H3 + acyl-CoA, without p300", "value": 7}, {"measurement": "Spectral Counts of Peptide VTIMPK (117-122) (SEQ ID NO: 9)", "setting": "[2]; H3 + acyl-CoA, without p300", "value": 3}, {"measurement": "Spectral Counts of Peptide YRPGTVALR (41-49) (SEQ ID NO: 4)", "setting": "[2]; H3 + acyl-CoA, without p300", "value": 47}, {"measurement": "Spectral Counts of Peptide KQLATK (18-23, K18) (SEQ ID NO: 13)", "setting": "[2]; [4]", "value": 19}, {"measurement": "Spectral Counts of Peptide KQLATKAAR (18-26, K18, K23) (SEQ ID NO: 15)", "setting": "[2]; [4]", "value": 18}, {"measurement": "Spectral Counts of Peptide KSAPATGGVK (27-36, K27) (SEQ ID NO: 17)", "setting": "[2]; [4]", "value": 12}, {"measurement": "Spectral Counts of Peptide KSTGGKAPR (9-17, K9, K14) (SEQ ID NO: 11)", "setting": "[2]; [4]", "value": 2}, {"measurement": "Spectral Counts of Peptide KSTGGKAPR (9-17, K14) (SEQ ID NO: 10)", "setting": "[2]; [4]", "value": 11}, {"measurement": "Spectral Counts of Peptide QLATKAAR (19-26, K23) (SEQ ID NO: 16)", "setting": "[2]; [4]", "value": 1}, {"measurement": "Spectral Counts of Peptide KQLATK (18-23, K18) (SEQ ID NO: 13)", "setting": "[2]; [5]", "value": 2}, {"measurement": "Spectral Counts of Peptide KSAPATGGVK (27-36, K27) (SEQ ID NO: 17)", "setting": "[2]; [5]", "value": 2}, {"measurement": "Spectral Counts of Peptide KSTGGKAPR (9-17, K14) (SEQ ID NO: 10)", "setting": "[2]; [5]", "value": 2}, {"measurement": "visualization of p300-acylation of histone H3", "setting": "[3]", "value": "serve as sensitive reagents for visualizing p300-acylation of histone H3"}]}
